Test results published in PMC11477877, “Carbohydrate-Binding Mechanism of the Coagulant Lectin from Moringa oleifera Seeds (cMoL) Is Related to the Dimeric Protein Structure” (Molecules, 2024).

Target: T1, cMoL (coagulant lectin from Moringa oleifera seeds) (Moringa oleifera, UniProt Z9EIH6G9R5)
T1 construct: native, purified from seeds (ammonium sulfate, guar gel column); 101 residues; homodimer
T1 sequence (Z9EIH6G9R5 1-101): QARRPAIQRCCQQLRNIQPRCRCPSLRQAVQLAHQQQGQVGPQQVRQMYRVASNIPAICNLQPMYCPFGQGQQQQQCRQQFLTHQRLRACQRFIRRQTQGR
Assay: intrinsic fluorescence quenching, modified Stern-Volmer
Format: binding
Conditions: 298 K; water; excitation 280 nm; Hill h ~2 (dimer)
Source text: intrinsic fluorescence quenching, modified Stern-Volmer on cMoL (coagulant lectin from Moringa oleifera seeds)

Row | SMILES | Ka (10^2 M^-1)
1 | OC[C@H]1OC(O)[C@H](O)[C@@H](O)[C@H]1O (some centres unmarked) [galactose] | 0.1239 ± 0.00004 10^2 M^-1
2 | OC[C@H]1OC(O)[C@H](O)[C@@H](O)[C@@H]1O (some centres unmarked) [glucose] | 0.2979 ± 0.00007 10^2 M^-1
